Measured values published in patent publication US7745619B2, “Vinca derivatives” (priority 2003, dated 2010).

Legend:
SNB-75 = experiment: NCI 60-cell line growth inhibition assay: SNB-75; format: cell-based; conditions: Homo sapiens
K-562 = experiment: NCI 60-cell line growth inhibition assay: K-562; format: cell-based; conditions: Homo sapiens, K562
MALME-3M = experiment: NCI 60-cell line growth inhibition assay: MALME-3M; format: cell-based; conditions: Homo sapiens, Malme-3M
HeLa S-3 cells = experiment: HeLa GI50 determination (SRB growth inhibition); format: cell-based, human; conditions: Homo sapiens, HeLa S3, 48 h, read-out: HeLa Cells GI50 (nM)
Summary of the method: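 Cells plated at 2×10^4/well; day-0 plate TCA-fixed, test compounds added at 10-fold dilutions for 2 days. SRB staining, absorbance at 490 nm; GI = 100×(T−T0)/(C−T0), GI50 from growth inhibition vs. concentration plots.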

MOLT-4 = experiment: NCI 60-cell line growth inhibition assay: MOLT-4; format: cell-based; conditions: Homo sapiens
SK-MEL-5 = experiment: NCI 60-cell line growth inhibition assay: SK-MEL-5; format: cell-based; conditions: Homo sapiens
T-47D = experiment: NCI 60-cell line growth inhibition assay: T-47D; format: cell-based; conditions: Homo sapiens, T47D, Breast
Source text: (§1) The following data in Table 4 summarize the growth inhibition properties of several compounds of the present invention against 60-human transformed cell lines.

SF-539 = experiment: NCI 60-cell line growth inhibition assay: SF-539; format: cell-based; conditions: Homo sapiens
NCI-H522 = format: cell-based; conditions: Homo sapiens
SNB-19 = experiment: NCI 60-cell line growth inhibition assay: SNB-19; format: cell-based; conditions: Homo sapiens
NCI-H23 = format: cell-based; conditions: Homo sapiens
HL-60(TB) = experiment: cells; format: cell-based; conditions: Homo sapiens, Leukemia
NCI-H226 = format: cell-based; conditions: Homo sapiens, Non-Small Cell Lung
Source text: as §1

DU-145 = experiment: NCI 60-cell line growth inhibition assay: DU-145; format: cell-based; conditions: Homo sapiens
EKVX = experiment: NCI 60-cell line growth inhibition assay: EKVX; format: cell-based; conditions: Homo sapiens
OVCAR-5 = experiment: NCI 60-cell line growth inhibition assay: OVCAR-5; format: cell-based; conditions: Homo sapiens
SK-MEL-28 = experiment: NCI 60-cell line growth inhibition assay: SK-MEL-28; format: cell-based; conditions: Homo sapiens, Melanoma
Source text: as §1

SR = experiment: NCI 60-cell line growth inhibition assay: SR; format: cell-based; conditions: Homo sapiens, Leukemia
Source text: as §1

SK-MEL-2 = experiment: NCI 60-cell line growth inhibition assay: SK-MEL-2; format: cell-based; conditions: Homo sapiens
RXF 393 = experiment: NCI 60-cell line growth inhibition assay: RXF 393; format: cell-based; conditions: Homo sapiens
OVCAR-4 = experiment: NCI 60-cell line growth inhibition assay: OVCAR-4; format: cell-based; conditions: Homo sapiens
BT-549 = experiment: NCI 60-cell line growth inhibition assay: BT-549; format: cell-based; conditions: Homo sapiens
UO-31 = experiment: NCI 60-cell line growth inhibition assay: UO-31; format: cell-based; conditions: Homo sapiens

Row | SMILES | GI50 (SNB-75) [µM] | GI50 (K-562) [µM] | GI50 (MALME-3M) [µM] | GI50 (HeLa S-3 cells) [nM] | GI50 (MOLT-4) [µM] | GI50 (SK-MEL-5) [µM] | GI50 (T-47D) [µM] | GI50 (SF-539) [µM] | GI50 (NCI-H522) [µM] | GI50 (SNB-19) [µM] | GI50 (NCI-H23) [µM] | GI50 (HL-60(TB)) [µM] | GI50 (NCI-H226) [µM] | GI50 (DU-145) [µM] | GI50 (EKVX) [µM] | GI50 (OVCAR-5) [µM] | GI50 (SK-MEL-28) [µM] | GI50 (SK-MEL-2) [µM] | GI50 (RXF 393) [µM] | GI50 (OVCAR-4) [µM] | further results
1 | CCC1=C[C@H]2CN(CCc3c([nH]c4ccc(Br)cc34)[C@@](C(=O)OC)(c3cc4c(cc3OC)N(C)[C@H]3[C@@](O)(C(=O)OC)[C@H](OC(C)=O)[C@]5(CC)C=CCN6CC[C@]43[C@@H]65)C2)C1 [Example 97, 12′-bromoanhydro vinblastine] | 12.2 | < 0.01 | 1.42 | 30 | < 0.01 | < 0.01 | 19.4 | < 0.01 | < 0.01 | < 0.01 | 0.325 | < 0.01 | < 0.01 | < 0.01 | 10.2 | 0.0124 | 3.31 |  |  |  | 
2 | CCCC(=O)/C=C/c1ccc2[nH]c3c(c2c1)CCN1C[C@H](C[C@@](O)(CC)C1)C[C@]3(C(=O)OC)c1cc2c(cc1OC)N(C)[C@H]1[C@@](O)(C(=O)OC)[C@H](OC(C)=O)[C@]3(CC)C=CCN4CC[C@]21[C@@H]43 [Example 29, 12′-(3-oxohex-1-enyl)vinblastine] |  | < 0.01 |  | 515 | 0.011 | 0.42 |  | 0.021 | 0.0314 | < 0.01 |  | 0.244 | < 0.01 | 0.0152 | 10.8 |  |  | 9.77 | 0.268 | 0.0211 | GI50 (SR): 0.396 µM
3 | CC[C@]1(O)C[C@H]2CN(CCc3c([nH]c4ccc(C#Cc5ccccc5)cc34)[C@@](C(=O)OC)(c3cc4c(cc3OC)N(C)[C@H]3[C@@](O)(C(=O)OC)[C@H](OC(C)=O)[C@]5(CC)C=CCN6CC[C@]43[C@@H]65)C2)C1 [Example 19, 12′-(2-phenylethynyl) vinblastine] | 0.53 |  | 0.254 | > 1000 | 0.196 | 0.757 | 4.75 | 1.79 | 1.81 | 1.79 | 0.541 |  |  | 2.46 | 2.79 | 1.78 | 1.27 | 2.29 | 0.619 | 1.55 | GI50 (BT-549): 1.89 µM; GI50 (UO-31): 2.2 µM
